Results: ChEMBL document CHEMBL1139575, “Discovery and synthesis of a novel and selective drug-like P2X(1) antagonist” (Bioorg Med Chem Lett, 2005)

Legend:
[1] = Inhibitory concentration against P2X purinoceptor 2/3 expressed in 1321N1 astrocytoma cells; type: functional, cell-based, Homo sapiens
P2X purinoceptor 2 = target: T1, P2X purinoceptor 2 (Homo sapiens, UniProt Q9UBL9); assay: Inhibitory concentration against human P2X purinoceptor 2 (hP2X2) expressed in 1321N1 astrocytoma cells; type: functional, cell-based
T1 sequence (Q9UBL9 whole entry): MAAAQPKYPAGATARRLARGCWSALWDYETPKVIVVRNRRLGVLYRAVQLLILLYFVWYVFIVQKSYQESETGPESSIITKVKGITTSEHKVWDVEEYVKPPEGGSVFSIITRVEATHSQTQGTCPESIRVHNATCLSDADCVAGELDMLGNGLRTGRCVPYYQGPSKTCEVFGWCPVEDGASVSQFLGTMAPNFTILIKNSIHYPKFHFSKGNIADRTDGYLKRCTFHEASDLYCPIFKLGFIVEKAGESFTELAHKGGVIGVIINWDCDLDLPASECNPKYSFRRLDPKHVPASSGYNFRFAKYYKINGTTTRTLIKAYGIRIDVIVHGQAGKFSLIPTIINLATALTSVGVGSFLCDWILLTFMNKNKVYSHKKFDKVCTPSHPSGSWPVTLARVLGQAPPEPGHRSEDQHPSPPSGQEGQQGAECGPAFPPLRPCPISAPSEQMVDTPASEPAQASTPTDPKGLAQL

P2X purinoceptor 3 = target: T2, P2X purinoceptor 3 (Homo sapiens, UniProt P56373); assay: Inhibitory concentration against human P2X purinoceptor 3 (hP2X3) expressed in CHO-K1 cells; type: functional, cell-based
T2 sequence (P56373 whole entry): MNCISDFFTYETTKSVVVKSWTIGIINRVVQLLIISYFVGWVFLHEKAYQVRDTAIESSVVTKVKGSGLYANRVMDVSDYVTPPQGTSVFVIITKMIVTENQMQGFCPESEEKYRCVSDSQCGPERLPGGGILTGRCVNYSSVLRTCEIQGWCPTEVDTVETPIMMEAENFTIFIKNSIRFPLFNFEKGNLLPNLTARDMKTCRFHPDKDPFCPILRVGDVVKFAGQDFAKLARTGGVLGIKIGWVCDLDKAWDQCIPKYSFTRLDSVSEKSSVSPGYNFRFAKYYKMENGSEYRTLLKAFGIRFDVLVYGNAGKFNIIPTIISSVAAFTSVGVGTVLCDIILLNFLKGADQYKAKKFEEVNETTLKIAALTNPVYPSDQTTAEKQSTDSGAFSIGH

P2X purinoceptor 1 = target: T3, P2X purinoceptor 1 (Homo sapiens, UniProt P51575); assay: Inhibitory concentration against human P2X purinoceptor 1 (hP2X1) expressed in CHO-K1 cells; type: functional, cell-based
T3 sequence (P51575 whole entry): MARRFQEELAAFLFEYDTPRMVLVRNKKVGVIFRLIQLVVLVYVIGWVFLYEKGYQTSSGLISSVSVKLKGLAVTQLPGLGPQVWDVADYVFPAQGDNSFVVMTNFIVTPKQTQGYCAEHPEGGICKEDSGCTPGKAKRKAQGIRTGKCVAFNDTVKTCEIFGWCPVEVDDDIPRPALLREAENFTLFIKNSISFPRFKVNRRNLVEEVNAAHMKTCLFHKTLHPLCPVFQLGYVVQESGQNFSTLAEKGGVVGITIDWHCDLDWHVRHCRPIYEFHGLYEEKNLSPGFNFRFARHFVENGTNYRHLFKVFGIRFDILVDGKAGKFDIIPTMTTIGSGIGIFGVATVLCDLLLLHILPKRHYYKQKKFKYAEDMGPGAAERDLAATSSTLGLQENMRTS

IC50 [1]: > 100 µM | IC50 (P2X purinoceptor 2): > 100 µM | IC50 (P2X purinoceptor 3): > 100 µM | IC50 (P2X purinoceptor 1): 3 µM
SMILES: O=C(N[C@H](Cc1cscn1)C(=O)N[C@@H](CC1CCCCC1)[C@@H](O)[C@@H](O)C1CC1)c1nc2ccccc2[nH]1
